Data on 22 molecules can be found in patent US20100311714A1, “1H-IMIDAZO[4,5-c]QUINOLINONE COMPOUNDS” (priority 2009, published 2010).

pIC50: −log10 of the molar value. Converted amounts (≈) assume the structure as drawn. Where two headings read alike, the source gives them in different places.

Series [1] is described as follows: High-throughput equilibrium solubility at pH 6.8. Type of series: physicochemical. Particulars: pH 6.8, aqueous buffer, thermodynamic from solid; read-out: HT-Eq Sol/pH 6.8. The text has this:
The physicochemical properties of relevance for the absorption of the compound, such as the solubility and the membrane permeability, especially at a pH close to neutral pH can be measured using the procedure as described by L. ZHOU et al. in JOURNAL OF PHARMACEUTICAL SCIENCES, VOL. 96, NO. 11, p. 3052-3071 (2007) for the solubility at pH 6.8 and the procedure as described by F. Wohnsland and B. Faller in Journal of Medicinal Chemistry Vol 44, p. 923-930 (2001) for the Parallel Artificial Membrane Permeability Assay (PAMPA) at pH 6.8.

The nature of series [2]: Parallel Artificial Membrane Permeability Assay (PAMPA) at pH 6.8. Type of series: physicochemical. Put shortly: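 Reported as log Pe, membrane permeability was determined by parallel artificial membrane assay at pH 6.8 per Wohnsland–Faller.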
(The PAMPA barrier holds no transporters, so it reflects passive diffusion.)

Another series concerns the target T1, mTOR (Homo sapiens, UniProt P42345).
T1 construct: purchased Invitrogen Corporation (Carlsbad/Calif., USA) PV4753
In words: Biochemical assay for m-TOR by TR-FRET. Put shortly: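 mTOR (0.5 nM) phosphorylates GFP-4EBP1 (400 nM) with 8 μM ATP at rt in 50 mM HEPES pH 7.5, 10 mM MnCl2, 50 mM NaCl, 1 mM EGTA, 1 mM DTT; compounds 0.003–10 μM final. EDTA stop with Tb-anti-p4EBP1[pT46] antibody (0.5 nM); TR-FRET read after 15 min against no-enzyme and vehicle controls.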

T1 sequence (P42345 1360-2549 limits assumed): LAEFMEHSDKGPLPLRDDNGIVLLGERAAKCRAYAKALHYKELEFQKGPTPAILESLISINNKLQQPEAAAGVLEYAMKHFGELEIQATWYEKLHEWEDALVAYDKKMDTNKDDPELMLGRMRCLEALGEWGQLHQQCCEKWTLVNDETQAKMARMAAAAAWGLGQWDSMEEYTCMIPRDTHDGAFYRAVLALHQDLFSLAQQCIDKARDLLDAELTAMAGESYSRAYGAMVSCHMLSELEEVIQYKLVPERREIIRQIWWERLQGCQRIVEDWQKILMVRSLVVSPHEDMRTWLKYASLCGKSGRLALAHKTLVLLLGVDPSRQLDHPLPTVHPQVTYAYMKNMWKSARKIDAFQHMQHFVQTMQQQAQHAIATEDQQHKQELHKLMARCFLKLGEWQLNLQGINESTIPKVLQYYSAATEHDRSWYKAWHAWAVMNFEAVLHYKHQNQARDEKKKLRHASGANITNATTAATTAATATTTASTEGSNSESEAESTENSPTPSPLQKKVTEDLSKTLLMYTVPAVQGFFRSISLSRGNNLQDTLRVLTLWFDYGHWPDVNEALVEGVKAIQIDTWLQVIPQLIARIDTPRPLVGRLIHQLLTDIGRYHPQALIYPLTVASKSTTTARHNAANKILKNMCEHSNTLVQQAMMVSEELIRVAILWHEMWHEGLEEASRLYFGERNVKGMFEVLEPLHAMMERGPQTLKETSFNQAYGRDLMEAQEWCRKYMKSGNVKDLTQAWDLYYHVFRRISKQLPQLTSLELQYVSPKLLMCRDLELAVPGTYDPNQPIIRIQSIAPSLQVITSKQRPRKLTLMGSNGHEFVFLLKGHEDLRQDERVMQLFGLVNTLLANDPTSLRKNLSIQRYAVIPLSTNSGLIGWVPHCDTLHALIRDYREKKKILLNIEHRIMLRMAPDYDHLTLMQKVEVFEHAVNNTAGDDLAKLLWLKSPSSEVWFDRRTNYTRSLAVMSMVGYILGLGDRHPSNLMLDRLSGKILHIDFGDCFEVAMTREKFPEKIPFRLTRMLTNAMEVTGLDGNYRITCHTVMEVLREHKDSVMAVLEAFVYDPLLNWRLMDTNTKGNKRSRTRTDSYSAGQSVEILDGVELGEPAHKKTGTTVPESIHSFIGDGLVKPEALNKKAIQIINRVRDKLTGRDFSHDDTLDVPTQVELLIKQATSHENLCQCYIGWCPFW

For `Cc1ncccc1-n1c(=O)n(C)c2cnc3ccc(-c4cnc(N)c(C(F)(F)F)c4)cc3c21` [Example 2.11, 8-(6-Amino-5-trifluoromethyl-pyridin-3-yl)-3-methyl-1-(2-methyl-pyridin-3-yl)-1,3-dihydro-imidazo[4,5-c]quinolin-2-one], the solubility thermodynamic in series [1] turned out to be 13 µg/mL (≈ 28.9 µM). For the same molecule, in series [2], the “HT-perm/logPe pH6.8” value was −4.0. In addition, at mTOR (read-out: mTOR/IC50), the pIC50 is 7.80.

Regarding `COc1ccc(-c2ccc3ncc4c(c3c2)n(-c2cccnc2C)c(=O)n4C)cn1` [Example 2.12, 8-(6-Methoxy-pyridin-3-yl)-3-methyl-1-(2-methyl-pyridin-3-yl)-1,3-dihydro-imidazo[4,5-c]quinolin-2-one], in series [1], the solubility thermodynamic is 27 µg/mL (≈ 67.9 µM). Further, the “HT-perm/logPe pH6.8” value in series [2] is reported as −3.3. Also, on mTOR (read-out: mTOR/IC50), the pIC50 was 7.13.

In the case of `CNc1ccc(-c2ccc3ncc4c(c3c2)n(-c2cccnc2C)c(=O)n4C)cn1` [Example 2.13, 3-Methyl-8-(6-methylamino-pyridin-3-yl)-1-(2-methyl-pyridin-3-yl)-1,3-dihydro-imidazo[4,5-c]quinolin-2-one], in series [1], the solubility thermodynamic stood at 56 µg/mL (≈ 141 µM). Also, in series [2], the “HT-perm/logPe pH6.8” value was −4.7. Further, on mTOR (read-out: mTOR/IC50), the pIC50 is 7.72.

Regarding `Cc1ncccc1-n1c(=O)n(C)c2cnc3ccc(-c4cnc(N(C)C)nc4)cc3c21` [Example 2.15, 8-(2-Dimethylamino-pyrimidin-5-yl)-3-methyl-1-(2-methyl-pyridin-3-yl)-1,3-dihydro-imidazo[4,5-c]quinolin-2-one], in series [1], the solubility thermodynamic turned out to be 11 µg/mL (≈ 26.7 µM). Besides, in series [2], the “HT-perm/logPe pH6.8” value is −3.7. Moreover, the pIC50 on mTOR (read-out: mTOR/IC50) is 7.28.

On to `Cc1ncccc1-n1c(=O)n(C)c2cnc3ccc(-c4cncc(NC(C)C)c4)cc3c21` [Example 2.24, 8-(5-Isopropylamino-pyridin-3-yl)-3-methyl-1-(2-methyl-pyridin-3-yl)-1,3-dihydro-imidazo[4,5-c]quinolin-2-one], for which the solubility thermodynamic in series [1] stood at 196 µg/mL (≈ 462 µM). Also, in series [2], the “HT-Perm logPe pH6.8” value is reported as −4.5. The pIC50 at mTOR (read-out: EPK_mTOR/IC50) was 7.54.

As to `Cc1ncccc1-n1c(=O)n(C)c2cnc3ccc(-c4cncc(N)c4)cc3c21` [Example 2.25, 8-(5-Amino-pyridin-3-yl)-3-methyl-1-(2-methyl-pyridin-3-yl)-1,3-dihydro-imidazo[4,5-c]quinolin-2-one], the solubility thermodynamic in series [1] amounted to 228 µg/mL (≈ 596 µM). Moreover, the “HT-Perm logPe pH6.8” value in series [2] is recorded as −7.7. In addition, the pIC50 at mTOR (read-out: EPK_mTOR/IC50) is 7.92.

Regarding `CNc1cncc(-c2ccc3ncc4c(c3c2)n(-c2cccnc2C)c(=O)n4C)c1` [Example 2.26, 3-Methyl-8-(5-methylamino-pyridin-3-yl)-1-(2-methyl-pyridin-3-yl)-1,3-dihydro-imidazo[4,5-c]quinolin-2-one], in series [1], the solubility thermodynamic stood at 115 µg/mL (≈ 290 µM). Besides, the “HT-Perm logPe pH6.8” value in series [2] is on record as −5.3. Besides, the pIC50 on mTOR (read-out: EPK_mTOR/IC50) is 7.66.

Regarding `COc1cc(-c2ccc3ncc4c(c3c2)n(-c2cccnc2C)c(=O)n4C)cnc1C(OC)OC` [Example 2.27, 8-(6-Dimethoxymethyl-5-methoxy-pyridin-3-yl)-3-methyl-1-(2-methyl-pyridin-3-yl)-1,3-dihydro-imidazo[4,5-c]quinolin-2-one], in series [1], the solubility thermodynamic was more than 472 µg/mL. The “HT-Perm logPe pH6.8” value in series [2] is given as −5.3. The pIC50 at mTOR (read-out: EPK_mTOR/IC50) was 6.77.

Consider `CCOc1cc(-c2ccc3ncc4c(c3c2)n(-c2cccnc2C)c(=O)n4C)cnc1COC` [Example 2.28, 8-(5-Ethoxy-6-methoxymethyl-pyridin-3-yl)-3-methyl-1-(2-methyl-pyridin-3-yl)-1,3-dihydro-imidazo[4,5-c]quinolin-2-one], for which the solubility thermodynamic in series [1] is 51 µg/mL (≈ 112 µM). The “HT-Perm logPe pH6.8” value in series [2] is reported as −4.3. The pIC50 on mTOR (read-out: EPK_mTOR/IC50) is 7.24.

On to `Cc1ncccc1-n1c(=O)n(C)c2cnc3ccc(-c4cncc(N5CCC5)c4)cc3c21` [Example 2.29, 8-(5-Azetidin-1-yl-pyridin-3-yl)-3-methyl-1-(2-methyl-pyridin-3-yl)-1,3-dihydro-imidazo[4,5-c]quinolin-2-one], for which the solubility thermodynamic in series [1] was 8 µg/mL (≈ 18.9 µM). The “HT-Perm logPe pH6.8” value in series [2] was −4.3. Also, the pIC50 at mTOR (read-out: EPK_mTOR/IC50) is 7.37.

Turning to `CCNc1cc(-c2ccc3ncc4c(c3c2)n(-c2cccnc2C)c(=O)n4C)cnc1CO` [Example 2.31, 8-(5-Ethylamino-6-hydroxymethyl-pyridin-3-yl)-3-methyl-1-(2-methyl-pyridin-3-yl)-1,3-dihydro-imidazo[4,5-c]quinolin-2-one], the solubility thermodynamic in series [1] was determined as 27 µg/mL (≈ 61.3 µM). Besides, the “HT-Perm logPe pH6.8” value in series [2] is reported as −5.8. In addition, the pIC50 at mTOR (read-out: EPK_mTOR/IC50) was more than 8.52.

Turning to `CNc1cc(-c2ccc3ncc4c(c3c2)n(-c2cccnc2C)c(=O)n4C)cnc1C` [Example 2.32, 3-Methyl-8-(6-methyl-5-methylamino-pyridin-3-yl)-1-(2-methyl-pyridin-3-yl)-1,3-dihydro-imidazo[4,5-c]quinolin-2-one], the solubility thermodynamic in series [1] is 127 µg/mL (≈ 309 µM). Moreover, in series [2], the “HT-Perm logPe pH6.8” value was −4.8. Besides, the pIC50 on mTOR (read-out: EPK_mTOR/IC50) was 8.15.

As for `CNc1ncc(-c2ccc3ncc4c(c3c2)n(-c2ncccc2C)c(=O)n4C)cn1` [Example 3.4, 3-Methyl-8-(2-methylamino-pyrimidin-5-yl)-1-(3-methyl-pyridin-2-yl)-1,3-dihydro-imidazo[4,5-c]quinolin-2-one], in series [1], the solubility thermodynamic was 11 µg/mL (≈ 27.7 µM). In addition, the “HT-perm/logPe pH6.8” value in series [2] is recorded as −4.7. Besides, the pIC50 on mTOR (read-out: mTOR/IC50) was 6.22.

Regarding `Cc1cccnc1-n1c(=O)n(C)c2cnc3ccc(-c4cnc(N)c(C(F)(F)F)c4)cc3c21` [Example 3.12, 8-(6-Amino-5-trifluoromethyl-pyridin-3-yl)-3-methyl-1-(3-methyl-pyridin-2-yl)-1,3-dihydro-imidazo[4,5-c]quinolin-2-one], in series [1], the solubility thermodynamic amounted to 12 µg/mL (≈ 26.6 µM). Further, in series [2], the “HT-perm/logPe pH6.8” value is given as −4.0. Further, at mTOR (read-out: mTOR/IC50), the pIC50 was 6.41.

In the case of `COc1ccc(-c2ccc3ncc4c(c3c2)n(-c2cnccc2C)c(=O)n4C)cn1` [Example 4.3, 8-(6-Methoxy-pyridin-3-yl)-3-methyl-1-(4-methyl-pyridin-3-yl)-1,3-dihydro-imidazo[4,5-c]quinolin-2-one], the solubility thermodynamic in series [1] worked out at 129 µg/mL (≈ 325 µM). Moreover, in series [2], the “HT-perm/logPe pH6.8” value is −3.7. At mTOR (read-out: mTOR/IC50), the pIC50 was 6.35.

In the case of `CN(C)c1ccc(-c2ccc3ncc4c(c3c2)n(-c2cccnc2)c(=O)n4C)cn1` [Example 5.3, 8-(6-Dimethylamino-pyridin-3-yl)-3-methyl-1-pyridin-3-yl-1,3-dihydro-imidazo[4,5-c]quinolin-2-one], the solubility thermodynamic in series [1] worked out at 4 µg/mL (≈ 10.1 µM). Further, the “HT-perm/logPe pH6.8” value in series [2] is on record as −3.9. The pIC50 on mTOR (read-out: mTOR/IC50) was 6.60.

On to `CCOc1ccc(-c2ccc3ncc4c(c3c2)n(-c2cccnc2F)c(=O)n4C)cn1` [Example 6.1, 8-(6-Ethoxy-pyridin-3-yl)-1-(2-fluoro-pyridin-3-yl)-3-methyl-1,3-dihydro-imidazo[4,5-c]quinolin-2-one], for which the solubility thermodynamic in series [1] is 2 µg/mL (≈ 4.81 µM). Also, the “HT-perm/logPe pH6.8” value in series [2] is listed as −3.9. On mTOR (read-out: mTOR/IC50), the pIC50 was 6.97.

`Cn1c(=O)n(-c2cccnc2F)c2c3cc(-c4cnc(N)c(C(F)(F)F)c4)ccc3ncc21` [Example 6.2, 8-(6-Amino-5-trifluoromethyl-pyridin-3-yl)-1-(2-fluoro-pyridin-3-yl)-3-methyl-1,3-dihydro-imidazo[4,5-c]quinolin-2-one]: in series [1], the solubility thermodynamic was determined as 6 µg/mL (≈ 13.2 µM). Also, the “HT-perm/logPe pH6.8” value in series [2] is recorded as −3.8. Also, the pIC50 at mTOR (read-out: mTOR/IC50) is 7.82.

As for `Cc1nc(F)ccc1-n1c(=O)n(C)c2cnc3ccc(-c4cnc(N)c(C(F)(F)F)c4)cc3c21` [Example 7.1, 8-(6-Amino-5-trifluoromethyl-pyridin-3-yl)-1-(6-fluoro-2-methyl-pyridin-3-yl)-3-methyl-1,3-dihydro-imidazo[4,5-c]quinolin-2-one], the solubility thermodynamic in series [1] is 47 µg/mL (≈ 100 µM). The “HT-perm/logPe pH6.8” value in series [2] is reported as −3.8. Moreover, the pIC50 on mTOR (read-out: mTOR/IC50) was 8.10.

Turning to `Cc1nc(F)ccc1-n1c(=O)n(C)c2cnc3ccc(-c4cnc5c(ccn5C)c4)cc3c21` [Example 7.2, 1-(6-Fluoro-2-methyl-pyridin-3-yl)-3-methyl-8-(1-methyl-1H-pyrrolo[2,3-b]pyridin-5-yl)-1,3-dihydro-imidazo[4,5-c]quinolin-2-one], in series [1], the solubility thermodynamic is 3 µg/mL (≈ 6.84 µM). In series [2], the “HT-perm/logPe pH6.8” value is reported as −3.7. Also, the pIC50 at mTOR (read-out: mTOR/IC50) is 7.77.

Turning to `CCOc1ccc(-c2ccc3ncc4c(c3c2)n(-c2ccc(F)nc2C)c(=O)n4C)cn1` [Example 7.3, 8-(6-Ethoxy-pyridin-3-yl)-1-(6-fluoro-2-methyl-pyridin-3-yl)-3-methyl-1,3-dihydro-imidazo[4,5-c]quinolin-2-one], the solubility thermodynamic in series [1] is 2 µg/mL (≈ 4.66 µM). Further, the “HT-perm/logPe pH6.8” value in series [2] was −3.7. The pIC50 at mTOR (read-out: mTOR/IC50) is 7.23.

For the molecule `CNc1ccc(-c2ccc3ncc4c(c3c2)n(-c2ccc(F)nc2C)c(=O)n4C)cn1` [Example 7.4, 1-(6-Fluoro-2-methyl-pyridin-3-yl)-3-methyl-8-(6-methylamino-pyridin-3-yl)-1,3-dihydro-imidazo[4,5-c]quinolin-2-one], the solubility thermodynamic in series [1] worked out at 11 µg/mL (≈ 26.5 µM). Also, the “HT-perm/logPe pH6.8” value in series [2] is recorded as −4.3. In addition, the pIC50 on mTOR (read-out: mTOR/IC50) is 8.10.
